Experimental data: US20240132484A1, “BROAD SPECTRUM ANTIVIRAL COMPOUNDS TARGETING THE SKI COMPLEX” (priority 2020, published 2024)
Where “and” joins values, the source holds several entries; their conditions need not be identical. Equal entries are not always repeated. Where two headings read alike, the source gives them in different places.

Assays:
cells (nuclei count) = conditions: for Toxicity Data: Average, Mean: average of Exp 1-3 (SMW475, SMW477, SMW478), n 9; for Relative cell count to DMSO controls, Average 1 μM / Relative cell count to DMSO controls, Average 5 μM / Relative cell count to DMSO controls, Average 10 μM / Relative cell count to DMSO controls, Average 25 μM / Relative cell count to DMSO controls, Average 50 μM: toxicity data, 100=DMSO control; for Relative cell count to DMSO controls, Average (for correlation analysis): average value over the 5 tested concentrations (1 to 50 uM)
SARS2 = format: cell-based, SARS-CoV-2; conditions: for Infection Data: Percentage Infection Relative to Appropriate DMSO Control: avg background subtraction, replicate wells; for Infection Data: Average, Mean: average of Exp 1-3 (SMW475, SMW477, SMW478), n 9; for Percentage Inhibition Average 1 μM / Screening data (Relative infection to DMSO controls) Average 1 μM: SARS2, 1 μM; for Screening data (Relative infection to DMSO controls) Average 1 μM / Screening data (Relative infection to DMSO controls) Average 5 μM / Screening data (Relative infection to DMSO controls) Average 10 μM / Screening data (Relative infection to DMSO controls) Average 25 μM / Screening data (Relative infection to DMSO controls) Average 50 μM / Average (relative infection to DMSO over the 5 tested concentrations): 100=DMSO control; for Percentage Inhibition Average 5 μM / Screening data (Relative infection to DMSO controls) Average 5 μM: SARS2, 5 μM; for Percentage Inhibition Average 10 μM / Screening data (Relative infection to DMSO controls) Average 10 μM: SARS2, 10 μM; for Percentage Inhibition Average 25 μM / Screening data (Relative infection to DMSO controls) Average 25 μM: SARS2, 25 μM; for Percentage Inhibition Average 50 μM / Screening data (Relative infection to DMSO controls) Average 50 μM: SARS2, 50 μM; for Average (relative infection to DMSO over the 5 tested concentrations): SARS2, average over 1 to 50 uM

SMILES: Cc1csc(CN(CCN(C)C)Cc2ccco2)c1 [SILCS17]
- Toxicity Data: Average, Mean (cells (nuclei count); 1 uM): 96.29%
- Relative cell count to DMSO controls, Average 1 μM (cells (nuclei count)): 96.29
- Toxicity Data: Average, Mean (cells (nuclei count); 5 uM): 89.17%
- Relative cell count to DMSO controls, Average 5 μM (cells (nuclei count)): 89.17
- Toxicity Data: Average, Mean (cells (nuclei count); 10 uM): 88.87%
- Relative cell count to DMSO controls, Average 10 μM (cells (nuclei count)): 88.87
- Toxicity Data: Average, Mean (cells (nuclei count); 25 uM): 75.47%
- Relative cell count to DMSO controls, Average 25 μM (cells (nuclei count)): 75.47
- Toxicity Data: Average, Mean (cells (nuclei count); 50 uM): 53.52%
- Relative cell count to DMSO controls, Average 50 μM (cells (nuclei count)): 53.52
- Relative cell count to DMSO controls, Average (for correlation analysis) (cells (nuclei count)): 80.66
- Infection Data: Percentage Infection Relative to Appropriate DMSO Control (SARS2; 1 uM, Exp 1 (SMW475)): 78.55% and 85.49% and 89.26%
- Infection Data: Percentage Infection Relative to Appropriate DMSO Control (SARS2; 1 uM, Exp 2 (SMW477)): 101.46% and 156.03% and 155.63%
- Infection Data: Percentage Infection Relative to Appropriate DMSO Control (SARS2; 1 uM, Exp 3 (SMW478)): 90.81% and 93.25% and 105.34%
- Infection Data: Average, Mean (SARS2; 1 uM): 106.20%
- Infection Data: Percentage Infection Relative to Appropriate DMSO Control (SARS2; 5 uM, Exp 1 (SMW475)): 86.61% and 84.44% and 77.45%
- Infection Data: Percentage Infection Relative to Appropriate DMSO Control (SARS2; 5 uM, Exp 2 (SMW477)): 142.87% and 172.05% and 157.06%
- Infection Data: Percentage Infection Relative to Appropriate DMSO Control (SARS2; 5 uM, Exp 3 (SMW478)): 97.85% and 101.86% and 101.30%
- Infection Data: Average, Mean (SARS2; 5 uM): 113.50%
- Infection Data: Percentage Infection Relative to Appropriate DMSO Control (SARS2; 10 uM, Exp 1 (SMW475)): 75.56% and 86.80% and 108.19%
- Infection Data: Percentage Infection Relative to Appropriate DMSO Control (SARS2; 10 uM, Exp 2 (SMW477)): 130.54% and 160.59% and 172.84%
- Infection Data: Percentage Infection Relative to Appropriate DMSO Control (SARS2; 10 uM, Exp 3 (SMW478)): 90.38% and 97.98% and 103.28%
- Infection Data: Average, Mean (SARS2; 10 uM): 114.02%
- Infection Data: Percentage Infection Relative to Appropriate DMSO Control (SARS2; 25 uM, Exp 1 (SMW475)): 41.54% and 68.32% and 68.68%
- Infection Data: Percentage Infection Relative to Appropriate DMSO Control (SARS2; 25 uM, Exp 2 (SMW477)): 38.35% and 67.19% and 82.12%
- Infection Data: Percentage Infection Relative to Appropriate DMSO Control (SARS2; 25 uM, Exp 3 (SMW478)): 68.44% and 109.27% and 278.92%
- Infection Data: Average, Mean (SARS2; 25 uM): 91.43%
- Infection Data: Percentage Infection Relative to Appropriate DMSO Control (SARS2; 50 uM, Exp 1 (SMW475)): 15.74% and 49.90% and 30.92%
- Infection Data: Percentage Infection Relative to Appropriate DMSO Control (SARS2; 50 uM, Exp 2 (SMW477)): 11.74% and 25.42% and 30.96%
- Infection Data: Percentage Infection Relative to Appropriate DMSO Control (SARS2; 50 uM, Exp 3 (SMW478)): 20.44% and 62.60% and 81.13%
- Infection Data: Average, Mean (SARS2; 50 uM): 36.54%
- Percentage Inhibition Average 1 μM (SARS2): −6.20%
- Screening data (Relative infection to DMSO controls) Average 1 μM (SARS2): 106.20
- Percentage Inhibition Average 5 μM (SARS2): −13.50%
- Screening data (Relative infection to DMSO controls) Average 5 μM (SARS2): 113.50
- Percentage Inhibition Average 10 μM (SARS2): −14.02%
- Screening data (Relative infection to DMSO controls) Average 10 μM (SARS2): 114.02
- Percentage Inhibition Average 25 μM (SARS2): 8.57%
- Screening data (Relative infection to DMSO controls) Average 25 μM (SARS2): 91.43
- Percentage Inhibition Average 50 μM (SARS2): 63.46%
- Screening data (Relative infection to DMSO controls) Average 50 μM (SARS2): 36.54
- Average (relative infection to DMSO over the 5 tested concentrations) (SARS2): 92.34

SMILES: CN(C)CCN(Cc1ccsc1)Cc1ccc(CO)o1 [SILCS9]
- Relative cell count to DMSO controls, Average 1 μM (cells (nuclei count)): 105.37
- Relative cell count to DMSO controls, Average 5 μM (cells (nuclei count)): 103.56
- Relative cell count to DMSO controls, Average 10 μM (cells (nuclei count)): 111.19
- Relative cell count to DMSO controls, Average 25 μM (cells (nuclei count)): 92.21
- Relative cell count to DMSO controls, Average 50 μM (cells (nuclei count)): 60.67
- Toxicity Data, Average, Mean (relative to DMSO control) (cells (nuclei count); Average of Exp 1-3, 1 uM): 105.37%
- Toxicity Data, Average, Mean (relative to DMSO control) (cells (nuclei count); Average of Exp 1-3, 5 uM): 103.56%
- Toxicity Data, Average, Mean (relative to DMSO control) (cells (nuclei count); Average of Exp 1-3, 10 uM): 111.19%
- Toxicity Data, Average, Mean (relative to DMSO control) (cells (nuclei count); Average of Exp 1-3, 25 uM): 92.21%
- Toxicity Data, Average, Mean (relative to DMSO control) (cells (nuclei count); Average of Exp 1-3, 50 uM): 60.67%
- Relative cell count to DMSO controls, Average (for correlation analysis) (cells (nuclei count)): 94.60
- Percentage Infection Relative to DMSO Control, Average, Mean (SARS2): 95.98% and 111.45% and 120.58% and 120.66% and 113.21%
- SARS2 antiviral activity (SARS2): significant loss of activity
- Percentage Inhibition Average 1 μM (SARS2): −13.21%
- Screening data (Relative infection to DMSO controls) Average 1 μM (SARS2): 113.21
- Percentage Inhibition Average 5 μM (SARS2): −20.66%
- Screening data (Relative infection to DMSO controls) Average 5 μM (SARS2): 120.66
- Percentage Inhibition Average 10 μM (SARS2): −20.58%
- Screening data (Relative infection to DMSO controls) Average 10 μM (SARS2): 120.58
- Percentage Inhibition Average 25 μM (SARS2): −11.45%
- Screening data (Relative infection to DMSO controls) Average 25 μM (SARS2): 111.45
- Percentage Inhibition Average 50 μM (SARS2): 4.02%
- Screening data (Relative infection to DMSO controls) Average 50 μM (SARS2): 95.98
- Average (relative infection to DMSO over the 5 tested concentrations) (SARS2): 112.38
